# Measurements: PMC12017328, “RNA toehold switch-based reporter assay to assess bacterial uptake of antisense oligomers” (mBio, 2025)
# Tests used:
# [1] = tested on: Salmonella, UPEC 536, E. coli MG1655 and BW25113 expressing TS7-Mut_9::sfGFP; experiment: Toehold switch reporter assay, flow cytometry, statements for all strains; assay type: cell-based, Salmonella enterica; E. coli; conditions: CPP conjugated to PNA_toe, 5 µM; for Dynamics of sfGFP upregulation: measured at 4, 6 and 17 h, all strains
# Description: According to previous RNA-seq analyses ([12], [13], [22]), CPP-PNAs can strongly downregulate target mRNAs within 15 min. […] We therefore repeated the screen conducted and assayed fluorescence by flow cytometry at 4, 6, and 17 h post-treatment. […] The level of upregulation observed in the E. coli K12 strains was again substantially lower than in Salmonella and UPEC 536. […] This might be related to the stability of KFF in the culture media.
# Fig 9 Flow cytometric analysis of fluorescence of sfGFP informs on delivery efficiency of CPPs. Bacterial cultures expressing the TS7-Mut_9::sfGFP reporter construct treated with the indicated CPP-PNA_toe constructs at 5 µM each. The median fluorescence intensity of sfGFP was measured after 4 h (black bars), 6 h (dark gray bars), and 17 h (light gray bars) of treatment using flow cytometry. Relative upregulation of sfGFP is shown and was calculated by dividing the median fluorescence intensity of the test samples by the median fluorescence intensity of the control samples, to which water was added. Error bars indicate the standard deviation calculated from two independent experiments.
# (§1) Overnight cultures of respective bacterial strains (listed in Table S5) were diluted 1:100 in fresh MHB and grown to OD600 0.3. Overnight and secondary cultures were prepared with or without chloramphenicol (20 µg/mL) depending on the antibiotic resistance profile of the strain. Ninty-five microliters of the 0.3 OD600 bacterial suspension was distributed in the 96-well plate and mixed with 5 µL water or 20× CPP PNA working solutions (150 µM, 100 µM or 50 µM stocks in water). An equivalent volume of water was added to the bacteria to serve as untreated control. For testing the activity in other growth media (M9 minimal medium and LB), the bacteria were cultured in the respective media and treated as described above.
# (§2) Bacterial cells were treated as described above, fixed with 4% paraformaldehyde (PFA) in phosphate-buffered saline (PBS) after the indicated time points, and stained with 1 µg/mL DAPI for flow cytometric measurement of DAPI-positive bacterial cells. Cell suspensions were diluted by a factor of ~100–1,000 in PBS and sampled from 96-well plates to achieve ~2,000 counts/s for flow cytometric measurements. Flow cytometry was performed using the Agilent Novocyte flow cytometer with a high-throughput sampler, and 100,000 events were recorded per sample. The DAPI fluorescence was detected using the Pacific Blue channel; sfGFP and mNeon were detected in the FITC channel, and mCherry fluorescence in the PE-Texas Red channel. The lower threshold for FSC-H was set to 2,000 to eliminate the potential artifacts from smaller particles such as dust, bubbles, or cell debris. The wild-type strains without plasmids served as a control to detect the background fluorescence, termed bacterial background. A contour plot with FSC and SSC, each with bins defined on a logarithmic scale was used to select singlets. The gating strategy is described in Fig.S6. The median fluorescence intensity was used for calculating the fold upregulation of fluorescence. Flow cytometry data sets were analyzed using the Novocyte software (Agilent).
# (§3) Fold upregulation in median fluorescence intensity (FI) from flow cytometry was calculated as follows:
# (§4) fold upregulation = FI (sample)−FI(bacterial background)/FI (water control)−FI(bacterial background)
# [2] = tested on: Salmonella carrying the TS7::sfGFP reporter plasmid; experiment: Toehold switch reporter assay, microplate reader; assay type: cell-based, Salmonella enterica serovar Typhimurium strain SL1344; conditions: CPP conjugated to PNA_toe, 5 µM, TS7-Mut_9::sfGFP, 17 h, MHB; for Fold increase in fluorescence compared to the water-treated control: normalized to OD600
# Source text: Next, we tested whether 11-mer PNAs can activate the toehold switch in bacteria. We established the reporter assay in Salmonella enterica serovar Typhimurium (referred to as Salmonella hereafter), which we have previously used as a model organism for studying PNAs ([13], [17], [22]). In constructing a reporter plasmid, we cloned the TS7 sequence upstream of the coding sequence of superfolder GFP (sfGFP) and downstream of a constitutive PLtetO-1 promoter in the pXG10-SF vector ([35]) (see Materials and Methods for details). The final product is a fusion protein (TS7::sfGFP) in which the 10 amino acids from the short TS7 coding sequence are genetically linked to the N-terminus of sfGFP. We introduced the reporter plasmid in Salmonella. The bacteria were grown to an early log-phase in standard Mueller-Hinton broth (MHB), commonly used for testing antibacterial activity ([36]). As a proof-of-concept, we chose to deliver the PNAs through conjugation with (KFF)3K, a frequently used CPP (referred to as KFF hereafter). We tested two PNAs, PNA_toe as used above in vitro and a PNA that targets the mid-stem region (PNA_mid) of the switch (Fig. 2A). We treated the bacterial culture with varying concentrations (2.5 µM, 5 µM, or 7.5 µM) of the KFF-PNAs in a microtiter plate, recording GFP fluorescence and turbidity as bacterial growth continued.
# as §1
# (§5) The PNA-treated samples were incubated in the plate reader for 4–24 h at 37°C, with continuous double-orbital shaking (237 counts per minute). The fluorescence (λex 480 nm/λem 510 nm) and OD600 were recorded in a Synergy H1 plate reader (Biotek) by measuring every 20 min. The bacteria were sampled at various time points post-treatment and further analyzed by flow cytometry.
# (§6) Normalization of fluorescence intensity (FInorm) = FI (sample)−FI (medium background)/OD
# Fold upregulation in fluorescence intensity (FI) from the plate reader was calculated as follows:
# fold upregulation = FI (normalized sample)/FI (normalized control)
# [3] = tested on: Salmonella carrying the TS7::sfGFP reporter plasmid; experiment: Toehold switch reporter assay, flow cytometry; assay type: cell-based, Salmonella enterica serovar Typhimurium strain SL1344; conditions: TS7::sfGFP; 7.5 µM; 4 h post-treatment; MHB
# Description: as §1, §5, §2, §3, §4
# [4] = tested on: E. coli BW25113, MG1655 and UPEC 536 carrying TS7-Mut_9::sfGFP; experiment: Toehold switch reporter assay, microplate reader, E. coli strains; assay type: cell-based; conditions: CPP conjugated to PNA_toe; 5 µM; 17 h; MHB; all three E. coli strains
# Source text: Having established the CPP screening assay in Salmonella, we next tested it in E. coli. We chose the E. coli K12 strains BW25113 and MG1655, and the uropathogenic isolate E. coli 536 (UPEC 536). […] To test if the low fluorescence was due to lower sfGFP protein levels, we performed a western blot analysis after treating the bacteria with CPP-PNAs (Fig. S4). The upregulation of sfGFP protein correlated with fluorescence upregulation. The E. coli K12 strains were less susceptible than Salmonella. For these strains, a more sensitive method compared to the microplate reader such as flow cytometry might provide better results.
# Fig 8 Examining the performance of the toehold switch assay for screening of CPPs against E. coli. Various E. coli strains carrying the TS7-Mut_9::sfGFP encoding plasmid were treated with different CPP-PNA_toe constructs at 5 µM. As negative control, an equal volume of water (Control) was added instead. (A) Fluorescence intensity of sfGFP was recorded in a microplate reader for 17 h post-treatment measured in a microplate reader. (B) Upregulation in sfGFP fluorescence calculated relative to the water control based on the normalized fluorescence intensities at 17 h post-treatment. The experiment was performed two times, and bars indicate the mean value; error bars indicate the standard deviation from two independent experiments.
# Overnight cultures of respective bacterial strains (listed in Table S5) were diluted 1:100 in fresh MHB and grown to OD600 0.3. […]
# as §5, §6
# Fold upregulation in fluorescence intensity (FI) from the plate reader was calculated as follows: […]
# [5] = cited from earlier work
# Source text: For example, we observed a rapid but transient increase in fluorescence for some CPPs (e.g., KFF) and a sustained increase for others (e.g., RXR). This variation can likely be explained by the chemistry and stability of these carriers. […] Therefore, the different dynamics in fluorescence increase c ...
Substance,Dynamics of sfGFP upregulation [1],Fold increase in fluorescence compared to the water-treated control [2],Reporter activation (sfGFP fluorescence vs water control) [4],further results
"GRRRRRRRRRPPQ [R9-TAT, cell-penetrating peptide …]",only showed upregulation at the 17 h time point,negligible upregulation,,
KFFKFFKFFK [KFF-PNA_ctrl],,,,Activation of GFP expression [3]: did not activate GFP expression
"KFFKFFKFFK [cell-penetrating peptide …, carrier for PNA]",rapid upregulation at 4 h,highest fold increase in fluorescence,highest reporter activation,"Stability to proteases and in culture medium [5]: sensitive to proteases and degraded in nutrient-rich media such as MHB; Change of fluorescence over time ([1]; 4, 6 and 17 h): decrease; Speed of increase in fluorescence signal [2]: rapid increase in fluorescence signal"
"RKKRRQRR [Seq35, cell-penetrating peptide RKKRRQRR]",only showed upregulation at the 17 h time point,,,
"RQIKIWFQNRRMKWKK [ANT, cell-penetrating peptide …]",rapid upregulation at 4 h,highest fold increase in fluorescence,,
"RRRRR [R5, cell-penetrating peptide RRRRR]",only showed upregulation at the 17 h time point,,,
"RRWQW [L5a, cell-penetrating peptide RRWQW]",,negligible upregulation,,
"RXRRXRRXRRXRXB [cell-penetrating peptide RXRRXRRXRRXRXB, carrier for PNA]",rapid upregulation at 4 h,highest fold increase in fluorescence,highest reporter activation,"Stability to proteolytic degradation ([5]; unconjugated carrier peptide, ref [47]): resistant to proteolytic degradation; Speed of increase in fluorescence signal [2]: rapid increase in fluorescence signal"
"VALLPAVLLA [Seq23, cell-penetrating peptide …]",least active carrier,none,least effective PNA carrier,
